Values of other authors in patent US20220265635A1, “TREATMENT OF NEUROLOGICAL DISEASE” (Aclipse One Inc., priority 2018, published 2022).

System: dopamine receptors
Settings: background description; cited from earlier work

## CN1CCc2cccc3c2[C@H]1Cc1ccc(O)c(O)c1-3 [(6aR)-6-methyl-5,6,6a,7-tetrahydro-4H-dibenzo[de,g]quinoline-10,11-diol, reference compound]
  activity on dopamine receptors (in words): strong dopamine agonist
